Assay results: patent US20230021483A1, “[…] […] METHOD AND CLASSIFICATION OF PHARMACEUTICAL COMPONENTS BY USING TRANSCRIPTOMES” (National Institutes of Biomedical Innovation, Health and …, priority 2016, published 2023)

Tested on: preferentially upregulated genes in LV, SP, LN
Experiment: Z-score-based differential gene expression analysis (adjuvant group- or adjuvant-associated genes, 40 module mapping, TargetMine annotation)
Format: in vivo, C57BL/6 mice
Details: IP, LV
In short: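 Per-sample fold-change values converted to gene-wise z-scores within each organ's data set, then triplicate z-scores summed per adjuvant. Genes with summed score >3 taken as preferentially expressed; gene groups defined by combined per-adjuvant z-score thresholds (z>1 to z>3) specific to each organ.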

K3: B class CpG ODN (ATCGACTCTCGAGCGTTCTC), TLR9 ligand (chemistry not given here)
Ifih1 1426276_at (Group G1, Modules 20) (sample x1): −0.4
Ifit1 1450783_at (Group G1, Modules 20) (sample x1): −0.5
Ifit3 1449025_at (Group G1, Modules 20) (sample x1): −0.5
Irf7 1417244_a_at (Group G1, Modules 20) (sample x1): −0.5
Irgm1 1418825_at (Group G1, Modules 20) (sample x1): −0.5
Mndal 1426906_at (Group G1, Modules 20) (sample x1): −0.5
Pml 1448757_at (Group G1, Modules 20) (sample x1): −0.5
Pml 1456103_at (Group G1, Modules 20) (sample x1): −0.5
Rnf213 1455500_at (Group G1, Modules 20) (sample x1): −0.5
Rsad2 1436058_at (Group G1, Modules 20) (sample x1): −0.5
Shisa5 1423986_a_at (Group G1, Modules 20) (sample x1): −0.6
Shisa5 1437503_a_at (Group G1, Modules 20) (sample x1): −0.5
Stat1 1450033_a_at (Group G1, Modules 20) (sample x1): −0.6
Stat1 1450034_at (Group G1, Modules 20) (sample x1): −0.5
Tdrd7 1426716_at (Group G1, Modules 20) (sample x1): −0.2
Tor1aip2 1418115_s_at (Group G1, Modules 20) (sample x1): −0.5
Tor1aip2 1418116_at (Group G1, Modules 20) (sample x1): −0.4
Tor1aip2 1435526_at (Group G1, Modules 20) (sample x1): −0.3
Trim12a 1437432_a_at (Group G1, Modules 20) (sample x1): −0.5
Uba7 1426970_a_at (Group G1, Modules 20) (sample x1): −0.5
Adar 1425405_a_at (Group G1, Modules 20) (sample x2): −0.5
Adar 1434268_at (Group G1, Modules 20) (sample x2): −0.8
Ddx58 1436562_at (Group G1, Modules 20) (sample x2): −0.2
Ddx58 1456890_at (Group G1, Modules 20) (sample x2): −0.3
Eif2ak2 1422005_at (Group G1, Modules 20) (sample x2): −0.7
G3bp2 1421323_a_at (Group G1, Modules 20) (sample x2): −0.4
Gm9706///Isg15 1431591_s_at (Group G1, Modules 20) (sample x2): −0.5
H2-T10///H2-T22///H2-T9 1449875_s_at (Group G1, Modules 20) (sample x2): −0.2
Ifih1 1426276_at (Group G1, Modules 20) (sample x2): −0.3
Ifit1 1450783_at (Group G1, Modules 20) (sample x2): −0.5
Ifit3 1449025_at (Group G1, Modules 20) (sample x2): −0.5
Irf7 1417244_a_at (Group G1, Modules 20) (sample x2): −0.6
Irgm1 1418825_at (Group G1, Modules 20) (sample x2): −0.5
Mndal 1426906_at (Group G1, Modules 20) (sample x2): −0.4
Pml 1448757_at (Group G1, Modules 20) (sample x2): −0.3
Pml 1456103_at (Group G1, Modules 20) (sample x2): −0.3
Rnf213 1455500_at (Group G1, Modules 20) (sample x2): −0.4
Rsad2 1436058_at (Group G1, Modules 20) (sample x2): −0.5
Shisa5 1423986_a_at (Group G1, Modules 20) (sample x2): −0.5
Shisa5 1437503_a_at (Group G1, Modules 20) (sample x2): −0.4
Stat1 1450033_a_at (Group G1, Modules 20) (sample x2): −0.5
Stat1 1450034_at (Group G1, Modules 20) (sample x2): −0.6
Tdrd7 1426716_at (Group G1, Modules 20) (sample x2): −0.1
Tor1aip2 1418115_s_at (Group G1, Modules 20) (sample x2): −0.2
Tor1aip2 1418116_at (Group G1, Modules 20) (sample x2): −0
Tor1aip2 1435526_at (Group G1, Modules 20) (sample x2): −0.2
Trim12a 1437432_a_at (Group G1, Modules 20) (sample x2): −0.5
Uba7 1426970_a_at (Group G1, Modules 20) (sample x2): −0.4
Adar 1425405_a_at (Group G1, Modules 20) (sample x3): −0.2
Adar 1434268_at (Group G1, Modules 20) (sample x3): −0.8
Ddx58 1436562_at (Group G1, Modules 20) (sample x3): −0.4
Ddx58 1456890_at (Group G1, Modules 20) (sample x3): −0.4
Eif2ak2 1422005_at (Group G1, Modules 20) (sample x3): −0.5
G3bp2 1421323_a_at (Group G1, Modules 20) (sample x3): −0.4
Gm9706///Isg15 1431591_s_at (Group G1, Modules 20) (sample x3): −0.5
H2-T10///H2-T22///H2-T9 1449875_s_at (Group G1, Modules 20) (sample x3): −0.4
Ifih1 1426276_at (Group G1, Modules 20) (sample x3): −0.5
